# Patent publication US5792622A, “Assay for chemicals” (priority 1995, dated 1998)
# “Also recorded” adds a separate entry of the source. Where two headings read alike, the source gives them in different places.
# How the values were obtained:
# R. meliloti [1] = assay: microbe, parasite or virus in culture; format: cell-based; settings: for absorbance at which the reduction stopped: A550, FIGS. 3 and 5
# [2] = cited from earlier work; for Microtox IC50: Table 8
# fish (trout fingerlings) = settings: Table 8, trout fingerlings; cited from earlier work
# Rhodobacter sphaeroides = assay: Inhibition of tetrazolium dye reduction by Rhodobacter sphaeroides; format: cell-based
# Description: The other strains of bacteria, mixed in a buffer with various toxic chemicals, which were tested with the tetrazolium dye, gave varying results. Some bacteria reduced the dye, but the reduction was not inhibited appreciably by toxic chemicals. The absorbance of tetrazolium by Rhodobacter sphaeroides was not inhibited by copper. E. coli reduced the dye, but reduction was not inhibited by xylene. […] FIG. 1 is a graph showing data comparing the absorbance of the bacteria R. meliloti and E. coli at A590 varying between 0.0 and 0.3 in reacting with different toxins.
# R. meliloti [3] = format: cell-based
# B. megaterium = format: cell-based
# S. lactis = format: cell-based
# A. crystallopoites = format: cell-based
# S. typhimurium = format: cell-based
# E. coli = format: cell-based
# B. japonicum = format: cell-based
# R. leguminosarum = format: cell-based
# R. sphaeroides = format: cell-based
# Ps fluorescens = format: cell-based
# [4] = Sinorhizobium meliloti, read-out: IC50 ppm
# [5] = Sinorhizobium meliloti, read-out: Rhizobium/Tetrazolium ppm
# [6] = Sinorhizobium meliloti, read-out: Rhizobium/Tetrazolium IC50
# [7] = ratio of the inhibitory concentrations
# [8] = read-out: toxic concentration in mM equivalent to ppm of Table 7
# [9] = rhizobium meliloti mtt reduction
# [10] = Sinorhizobium meliloti, Table 4, organic compounds, read-out: average (ppm), concentration giving 50% inhibition of dye reduction
# [11] = Sinorhizobium meliloti, Table 9, read-out: Rhizobium/Tetrazolium ppm
compound,measurement,setting,value
CC(C)=O [Acetone],IC50,R. meliloti [1]; [4],71600 µg/mL
same,IC50,R. meliloti [1]; [5],1640 µg/mL
same,Microtox ppm,[2]; microtox bioluminescence,"13305-29,109"
c1ccccc1 [Benzene],sensitivity of Rhizobium/Tetrazolium assay compared with Microtox assay,R. meliloti [1],at least an order of magnitude more sensitive than the Rhizobium/Tetrazolium assay
same,IC50,R. meliloti [1]; [6],712 µg/mL
same,IC50,R. meliloti [1]; [5],712 to 2100 µg/mL
[Cd] [Cadmium],Fish LD50 (50% death of the fish),fish (trout fingerlings),1.0-100 ppm
same,ppm (50% inhibition of dye reduction),"R. meliloti [1]; Table 7, minerals",0.838 ppm
same,Rhizobium/Tetrazolium IC50,R. meliloti [1]; Table 8,0.210 ppm
same,sensitivity of Rhizobium/Tetrazolium assay compared with Microtox assay,R. meliloti [1]; [7],at least an order of magnitude more sensitive for 4 compounds
same,Microtox IC50,[2],416 ppm
"[Ca+2].[Cl-].[Cl-] [Calcium, calcium chloride]",effect on the reaction,"R. meliloti [1]; 19 ppm, with 500 μl of 5 mM EDTA (0.758 mM EDTA)",does not affect the reaction
same,ppm (50% inhibition of dye reduction),"R. meliloti [1]; Table 7, minerals",5.230 ppm
same,level at which toxic,R. meliloti [1]; in the absence of a counteracting substance,6 ppm
same,IC50,R. meliloti [1]; [8],0.0471 mM
ClC(Cl)Cl [Chloroform],IC50 (amount per tube),R. meliloti [1],6.10 mg/tube
same,IC50 volume,R. meliloti [1],827 µL
same,IC50,R. meliloti [1]; [9],4132 ppm
same,"average (ppm), concentration giving 50% inhibition of dye reduction",R. meliloti [1]; [9],2032
[Co] [Cobalt],ppm (50% inhibition of dye reduction),"R. meliloti [1]; Table 7, minerals",11.200 ppm
[Cu] [Copper],Fish LD50 (50% death of the fish),fish (trout fingerlings),0.1-10.7 ppm
same,effect on the reduction of the dye at very low concentrations,R. meliloti [1]; FIG. 10,stimulates the reduction of the dye at very low concentrations
same,ppm (50% inhibition of dye reduction),"R. meliloti [1]; Table 7, minerals",0.960 ppm
same,Rhizobium/Tetrazolium IC50,R. meliloti [1]; Table 8,0.240 ppm
same,sensitivity of Rhizobium/Tetrazolium assay compared with Microtox assay,R. meliloti [1]; [7],at least an order of magnitude more sensitive for 4 compounds
same,inhibition of absorbance of tetrazolium,Rhodobacter sphaeroides,not inhibited
same,Microtox IC50,[2],24.96 ppm
"O=C1C(Cl)=CC(=Nc2ccc(O)cc2)C=C1Cl [DCIP, 2,6-dichlorophenol-indophenol]",rate of reduction of the dye,R. meliloti [3],reduced very slowly
"C[S+](C)[O-] [DMSO, dimethyl sulfoxide]",IC50,R. meliloti [1],203.3 μl/tube
same,Microtox ppm,[2]; microtox bioluminescence,"3,506-102,995"
"O=[N+]([O-])c1ccc(O)c([N+](=O)[O-])c1 [Dinitrophenol, dinitrophenol]",absorbance at which the reduction stopped,R. meliloti [1],0.2
same,IC50,R. meliloti [1]; [10],574 µg/mL
CCO [Ethanol],IC50,R. meliloti [1]; [4],75600 µg/mL
same,Microtox ppm,[2]; microtox bioluminescence,"23,090-55,388"
"O=[N+]([O-])c1ccc(-[n+]2nc(-c3ccccc3)nn2-c2ccc(I)cc2)cc1 [INT, 2-(4-iodophenyl)-3-(4-nitrophenyl)-5-phenyltetrazolium chloride]",absorbance of reduced dye,"B. megaterium; Table 1, incubation 2:00 hrs",0.16
same,absorbance of reduced dye,"S. lactis; Table 1, incubation 9:57 hrs",0.08
same,absorbance of reduced dye,"A. crystallopoites; Table 1, incubation 2:00 hrs",0.14
same,absorbance of reduced dye,"S. typhimurium; Table 1, incubation 2:00 hrs",0.06
same,absorbance of reduced dye,"E. coli; Table 1, incubation 1:40 hrs",0.12
same,absorbance of reduced dye,"B. japonicum; Table 1, incubation 7:48 hrs",0.44
same,absorbance of reduced dye,"R. leguminosarum; Table 1, incubation 7:48 hrs",0.02
same,absorbance of reduced dye,"R. meliloti [3]; Table 1, incubation 2:00 hrs",0.48
same,absorbance of reduced dye,"R. sphaeroides; Table 1, incubation 11:25 hrs",0.95
same,absorbance of reduced dye,"Ps fluorescens; Table 1, incubation 1:57 hrs",0.17
[Pb] [Lead],inhibitory effect on the reduction of tetrazolium dye,R. meliloti [1],no inhibitory effect
"O=S(=O)([O-])[O-].[Mg+2] [Magnesium, Magnesium sulfate]",ppm (50% inhibition of dye reduction),"R. meliloti [1]; Table 7, minerals",59.900 ppm
same,IC50,R. meliloti [1]; [8],0.243 mM
[Mn+2] [Manganese],ppm (50% inhibition of dye reduction),R. meliloti [1]; [9],0.892
CO [Methanol],IC50,"R. meliloti [1]; Sinorhizobium meliloti, Table 6, solvents, read-out: IC50 ppm",76500 µg/mL
same,IC50,R. meliloti [1]; [11],68400 µg/mL
same,Microtox ppm,[2]; Table 9,"11,368-320400 ppm"
"COc1cc(-c2ccc(-n3nc(-c4ccccc4)n[n+]3-c3ccc([N+](=O)[O-])cc3)c(OC)c2)ccc1-n1nc(-c2ccccc2)n[n+]1-c1ccc([N+](=O)[O-])cc1 [NBT, 2,2'-di-nitrophenyl-5,5'-diphenyl-3,3'(-3,3'-dimethoxy-4,4'-diphenylene)ditetrazolium chloride]",absorbance of reduced dye,"B. megaterium; Table 1, incubation 2:00 hrs",0.19
same,absorbance of reduced dye,"S. lactis; Table 1, incubation 9:57 hrs",0.06
same,absorbance of reduced dye,"A. crystallopoites; Table 1, incubation 2:00 hrs",0.27
same,absorbance of reduced dye,"S. typhimurium; Table 1, incubation 2:00 hrs",0.24
same,absorbance of reduced dye,"E. coli; Table 1, incubation 1:40 hrs",0.1
same,absorbance of reduced dye,"B. japonicum; Table 1, incubation 7:48 hrs",0.01
same,absorbance of reduced dye,"R. leguminosarum; Table 1, incubation 7:48 hrs",0
same,absorbance of reduced dye,"R. meliloti [3]; Table 1, incubation 2:00 hrs",0.16
same,absorbance of reduced dye,"R. sphaeroides; Table 1, incubation 11:25 hrs",0.16
same,absorbance of reduced dye,"Ps fluorescens; Table 1, incubation 1:57 hrs",0.04
"[Cl-].[Na+] [NaCl, sodium chloride]",IC50,"R. meliloti [1]; FIG. 12, 10% NaCl solution","60,689 ppm"
same,IC50 volume,"R. meliloti [1]; FIG. 12, 10% NaCl solution, 590 nm",606.89 µL
same,absorbance reached,"R. meliloti [1]; at 1000 μl of 10% NaCl solution, 590 nm",0.1
[Ni] [Nickel],Rhizobium/Tetrazolium ppm,R. meliloti [1]; [9],49.3
same,Microtox ppm,[2]; microtox bioluminescence,34
"Oc1c(Cl)c(Cl)c(Cl)c(Cl)c1Cl [Pentachlorophenol, pentachlorophenol]",inhibition compared with trichlorophenol,R. meliloti [1],an order of magnitude greater
same,absorbance at which the reduction stopped,R. meliloti [1],≤ 0.25
same,IC50,R. meliloti [1]; [10],0.206 µg/mL
same,IC50,"R. meliloti [1]; Sinorhizobium meliloti, Table 8, read-out: Rhizobium/Tetrazolium IC50",0.143 µg/mL
same,sensitivity of Rhizobium/Tetrazolium assay compared with Microtox assay,R. meliloti [1]; [7],at least an order of magnitude more sensitive for 4 compounds; also recorded: two orders of magnitude more sensitive
same,Microtox IC50,[2],2.46-2.71 ppm
same,Microtox ppm,[2]; Table 9,2.46-2.71 ppm
Oc1ccccc1 [Phenol],Fish LD50 (50% death of the fish),fish (trout fingerlings),50-100 ppm
same,sensitivity of Rhizobium/Tetrazolium assay compared with Microtox assay,R. meliloti [1],at least an order of magnitude more sensitive than the Rhizobium/Tetrazolium assay
same,IC50,R. meliloti [1]; [6],1220 µg/mL
same,IC50,"R. meliloti [1]; Sinorhizobium meliloti, read-out: average (ppm), concentration giving 50% inhibition of dye reduction",1320 µg/mL
same,Microtox ppm,[2]; microtox bioluminescence,623
"O=c1ccc2[n+]([O-])c3ccc(O)cc3oc-2c1 [Resazurin, resazurin]",usefulness of dye reduction by E. coli,E. coli; protocol used with the tetrazolium dyes,did not yield useful results
[Se] [Selenium],IC50,"R. meliloti [1]; Sinorhizobium meliloti, Table 7, minerals, read-out: ppm (50% inhibition of dye reduction)",226 µg/mL
CCCCCCCCCCCCOS(=O)(=O)[O-].[Na+] [Sodium lauryl sulfate],IC50,R. meliloti [1]; [10],30.4 µg/mL
same,IC50,R. meliloti [1]; [11],31 µg/mL
same,sensitivity of Rhizobium/Tetrazolium assay compared with Microtox assay,R. meliloti [1]; [7],at least an order of magnitude more sensitive than the Rhizobium/Tetrazolium assay
"COc1cc(-c2ccc(-n3nc(-c4ccccc4)n[n+]3-c3ccccc3)c(OC)c2)ccc1-n1nc(-c2ccccc2)n[n+]1-c1ccccc1 [TB, 3,3'-[3,3'-dimethoxy(1,1'-biphenyl)-4,4'-diyl]-bis(2,5-diphenyl-2H-tetrazolium)dichloride]",absorbance of reduced dye,"B. megaterium; Table 1, incubation 2:00 hrs",0.17
same,absorbance of reduced dye,"S. lactis; Table 1, incubation 9:57 hrs",0.04
same,absorbance of reduced dye,"A. crystallopoites; Table 1, incubation 2:00 hrs",0.22
same,absorbance of reduced dye,"S. typhimurium; Table 1, incubation 2:00 hrs",0.22
same,absorbance of reduced dye,"E. coli; Table 1, incubation 1:40 hrs",0.04
same,absorbance of reduced dye,"B. japonicum; Table 1, incubation 7:48 hrs",0.02
same,absorbance of reduced dye,"R. leguminosarum; Table 1, incubation 7:48 hrs",0
same,absorbance of reduced dye,"R. meliloti [3]; Table 1, incubation 2:00 hrs",0.12
same,absorbance of reduced dye,"Ps fluorescens; Table 1, incubation 1:57 hrs",0.05
"c1ccc(-c2nn(-c3ccccc3)[n+](-c3ccccc3)n2)cc1 [TTC, 2,3,5-triphenyltetrazolium chloride]",absorbance of reduced dye,B. megaterium,0.1
same,absorbance of reduced dye,S. lactis,0.05
same,absorbance of reduced dye,A. crystallopoites,0.09
same,absorbance of reduced dye,S. typhimurium,0.04
same,absorbance of reduced dye,E. coli,0.14
same,absorbance of reduced dye,B. japonicum,0.07
same,absorbance of reduced dye,R. leguminosarum,0
same,absorbance of reduced dye,R. meliloti [3],0.09
same,absorbance of reduced dye,R. sphaeroides,0.12
same,absorbance of reduced dye,Ps fluorescens,0.01
"c1ccc(-c2nn(-c3ccccc3)[n+](-c3cccc4ccccc34)n2)cc1 [TV, 2,5-diphenyl-3-(α-napthyl)tetrazolium chloride]",absorbance of reduced dye,"B. megaterium; Table 1, incubation 2:00 hrs",0.07
same,absorbance of reduced dye,"S. lactis; Table 1, incubation 9:57 hrs",0.04
same,absorbance of reduced dye,"A. crystallopoites; Table 1, incubation 2:00 hrs",0.08
same,absorbance of reduced dye,"S. typhimurium; Table 1, incubation 2:00 hrs",0.04
same,absorbance of reduced dye,"E. coli; Table 1, incubation 1:40 hrs",0.03
same,absorbance of reduced dye,"B. japonicum; Table 1, incubation 7:48 hrs",0.14
same,absorbance of reduced dye,"R. leguminosarum; Table 1, incubation 7:48 hrs",0
same,absorbance of reduced dye,"R. meliloti [3]; Table 1, incubation 2:00 hrs",0.08
same,rate of reduction of the dye,R. meliloti [3]; in words,reduced more slowly than MTT
same,absorbance of reduced dye,"R. sphaeroides; Table 1, incubation 11:25 hrs",0.12
same,absorbance of reduced dye,"Ps fluorescens; Table 1, incubation 1:57 hrs",0.01
Cc1ccccc1 [Toluene],Fish LD50 (50% death of the fish),fish (trout fingerlings),23 ppm
same,IC50,R. meliloti [1]; [6],590 µg/mL
same,IC50,R. meliloti [1]; [5],30 to 502 µg/mL
same,sensitivity of Rhizobium/Tetrazolium assay compared with Microtox assay,R. meliloti [1]; [7],at least an order of magnitude more sensitive than the Rhizobium/Tetrazolium assay
same,Microtox IC50,[2],"33,833 ppm"
same,Microtox ppm,[2]; Table 9,"18.0-33,833 ppm"
[Zn] [Zinc],Fish LD50 (50% death of the fish),fish (trout fingerlings),0.24-7.20 ppm
same,ppm (50% inhibition of dye reduction),"R. meliloti [1]; Table 7, minerals",4.750 ppm
same,sensitivity of Rhizobium/Tetrazolium assay compared with Microtox assay,R. meliloti [1]; [7],at least an order of magnitude more sensitive for 4 compounds
same,Microtox IC50,[2],476 ppm
[Fe] [iron],inhibitory effect on the reduction of tetrazolium dye,R. meliloti [1],no inhibitory effect
O=C1NS(=O)(=O)c2ccccc21 [saccharin],absorbance to which the reduction would eventually go,R. meliloti [1],0.0
same,IC50,R. meliloti [1]; Sinorhizobium meliloti,477 µg/mL
ClC(Cl)=C(Cl)Cl [tetrachloroethylene],IC50,R. meliloti [1]; [10],34.8 µg/mL
ClC=C(Cl)Cl [trichloroethylene],IC50,R. meliloti [1]; [10],59.5 µg/mL
Mercury,inhibition of tetrazolium reduction,R. meliloti [1],inhibited tetrazolium reduction completely
same,ppm (50% inhibition of dye reduction),R. meliloti [1]; [9],0.0179
same,Microtox ppm,[2]; microtox bioluminescence,0.06
